Experimental data from the NIST ThermoML archive (doi:10.1016/j.fluid.2010.07.011).

Experiment: xn = mol fraction of the nth substance listed
Details: 101.33 kPa, Liquid, Vibrating tube method

CCCCCCN [1-hexanamine] + CCCCCCC
mass density [kg/m3]
Details | 288.15 K | 293.15 K | 298.15 K | 303.15 K | 308.15 K | 313.15 K | 318.15 K | 323.15 K
x1 = 0.0497 | 691.084 | 686.872 | 682.638 | 678.375 | 674.087 | 669.766 | 665.416 | 661.034
x1 = 0.0712 | 692.472 | 688.259 | 684.023 | 679.762 | 675.473 | 671.155 | 666.804 | 662.428
x1 = 0.1 | 694.376 | 690.164 | 685.929 | 681.666 | 677.379 | 673.063 | 668.716 | 664.339
x1 = 0.1394 | 697.059 | 692.841 | 688.603 | 684.341 | 680.052 | 675.736 | 671.39 | 667.016
x1 = 0.2017 | 701.458 | 697.235 | 692.989 | 688.722 | 684.431 | 680.114 | 675.766 | 671.395
x1 = 0.3011 | 708.825 | 704.586 | 700.331 | 696.055 | 691.758 | 687.436 | 683.088 | 678.716
x1 = 0.4001 | 716.491 | 712.241 | 707.974 | 703.691 | 699.388 | 695.063 | 690.714 | 686.344
x1 = 0.5105 | 725.411 | 721.153 | 716.879 | 712.593 | 708.285 | 703.959 | 699.61 | 695.241
x1 = 0.5996 | 732.829 | 728.568 | 724.292 | 720.004 | 715.698 | 711.371 | 707.026 | 702.664
x1 = 0.6802 | 739.756 | 735.495 | 731.219 | 726.929 | 722.623 | 718.301 | 713.958 | 709.598
x1 = 0.7495 | 745.832 | 741.569 | 737.294 | 733.009 | 728.705 | 724.386 | 720.046 | 715.689
x1 = 0.7984 | 750.175 | 745.914 | 741.641 | 737.357 | 733.056 | 728.74 | 724.406 | 720.058
x1 = 0.8484 | 754.693 | 750.434 | 746.164 | 741.883 | 737.584 | 733.272 | 728.943 | 724.594
x1 = 0.8999 | 759.4 | 755.143 | 750.877 | 746.597 | 742.304 | 737.996 | 733.672 | 729.332
x1 = 0.9467 | 763.694 | 759.441 | 755.177 | 750.901 | 746.613 | 742.31 | 737.99 | 733.656
x1 = 1 | 768.637 | 764.385 | 760.128 | 755.856 | 751.573 | 747.276 | 742.962 | 738.636
